Consider ten compounds from the Kinase Knowledgebase extract (Sharma et al. 2016).

Assay [1] has as its target PIK3CA (human) (UniProt P42336). The experiment in a line: Assessment of PIK3CA Kinase Activity.
The target in assay [2] is PIK3CD (Human) (UniProt O00329). The experiment in a line: Assessment of PIK3CD Kinase Activity.
Assay [3] addresses PIK3CG (human) (UniProt P48736). Put plainly: Assessment of PIK3CG Kinase Activity.

SMILES strings stand for the structures.

Sequence of PIK3CA (human) (P42336 whole entry, looked up): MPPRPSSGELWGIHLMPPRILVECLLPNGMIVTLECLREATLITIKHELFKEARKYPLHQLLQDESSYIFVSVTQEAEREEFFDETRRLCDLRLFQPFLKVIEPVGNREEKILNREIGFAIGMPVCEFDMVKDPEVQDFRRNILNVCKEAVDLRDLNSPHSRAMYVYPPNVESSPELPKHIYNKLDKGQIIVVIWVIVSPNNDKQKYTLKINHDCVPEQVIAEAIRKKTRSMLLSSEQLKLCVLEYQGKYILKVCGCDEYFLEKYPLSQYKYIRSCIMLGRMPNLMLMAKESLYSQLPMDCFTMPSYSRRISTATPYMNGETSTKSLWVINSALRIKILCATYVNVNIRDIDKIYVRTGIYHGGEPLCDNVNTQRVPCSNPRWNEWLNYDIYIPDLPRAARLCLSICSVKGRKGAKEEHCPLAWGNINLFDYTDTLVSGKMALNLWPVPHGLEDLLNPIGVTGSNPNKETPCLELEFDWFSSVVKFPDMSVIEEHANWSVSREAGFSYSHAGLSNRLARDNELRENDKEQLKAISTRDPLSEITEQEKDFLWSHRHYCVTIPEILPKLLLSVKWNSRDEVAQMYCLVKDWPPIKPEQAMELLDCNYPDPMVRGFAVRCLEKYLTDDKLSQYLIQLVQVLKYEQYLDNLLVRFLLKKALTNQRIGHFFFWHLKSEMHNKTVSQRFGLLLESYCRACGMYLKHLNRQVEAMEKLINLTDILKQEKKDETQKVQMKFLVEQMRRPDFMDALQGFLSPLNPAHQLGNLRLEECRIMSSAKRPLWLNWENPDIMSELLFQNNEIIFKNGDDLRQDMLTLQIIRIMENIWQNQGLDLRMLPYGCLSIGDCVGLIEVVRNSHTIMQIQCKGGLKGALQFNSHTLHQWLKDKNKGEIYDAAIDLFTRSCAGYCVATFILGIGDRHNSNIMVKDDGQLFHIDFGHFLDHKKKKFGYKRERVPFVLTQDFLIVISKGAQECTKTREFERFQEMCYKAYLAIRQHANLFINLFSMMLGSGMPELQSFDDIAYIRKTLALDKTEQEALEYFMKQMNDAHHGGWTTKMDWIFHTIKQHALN
Sequence of PIK3CG (human) (P48736 whole entry, looked up): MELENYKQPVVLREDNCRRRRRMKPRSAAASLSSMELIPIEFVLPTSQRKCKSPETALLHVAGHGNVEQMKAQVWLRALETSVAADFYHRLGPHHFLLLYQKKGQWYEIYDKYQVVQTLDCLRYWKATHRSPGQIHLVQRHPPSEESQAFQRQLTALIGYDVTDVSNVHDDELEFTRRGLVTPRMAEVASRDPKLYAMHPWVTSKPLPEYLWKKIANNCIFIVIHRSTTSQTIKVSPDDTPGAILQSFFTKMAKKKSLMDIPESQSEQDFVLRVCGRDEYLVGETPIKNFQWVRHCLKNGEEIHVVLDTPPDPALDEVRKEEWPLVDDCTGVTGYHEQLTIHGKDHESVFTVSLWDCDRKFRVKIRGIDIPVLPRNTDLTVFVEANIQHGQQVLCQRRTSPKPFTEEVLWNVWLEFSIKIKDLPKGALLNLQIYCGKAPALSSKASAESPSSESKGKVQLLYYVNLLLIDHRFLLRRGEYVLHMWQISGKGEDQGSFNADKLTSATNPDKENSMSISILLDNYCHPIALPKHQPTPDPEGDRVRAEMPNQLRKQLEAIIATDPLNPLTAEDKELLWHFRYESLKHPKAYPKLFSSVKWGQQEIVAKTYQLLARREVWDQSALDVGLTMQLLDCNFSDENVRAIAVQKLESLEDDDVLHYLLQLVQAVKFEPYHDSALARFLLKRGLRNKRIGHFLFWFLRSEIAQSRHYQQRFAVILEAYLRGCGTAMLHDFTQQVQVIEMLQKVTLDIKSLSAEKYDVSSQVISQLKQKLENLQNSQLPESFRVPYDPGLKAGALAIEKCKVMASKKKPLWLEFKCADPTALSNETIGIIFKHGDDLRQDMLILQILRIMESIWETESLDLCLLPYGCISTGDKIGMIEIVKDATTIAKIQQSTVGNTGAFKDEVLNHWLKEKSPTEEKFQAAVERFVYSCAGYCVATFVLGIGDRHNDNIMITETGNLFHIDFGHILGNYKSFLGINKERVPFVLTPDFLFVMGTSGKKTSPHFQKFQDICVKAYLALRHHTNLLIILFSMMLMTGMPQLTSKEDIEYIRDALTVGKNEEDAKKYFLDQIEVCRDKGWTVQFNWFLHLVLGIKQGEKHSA
Sequence of PIK3CD (Human) (O00329 whole entry, looked up): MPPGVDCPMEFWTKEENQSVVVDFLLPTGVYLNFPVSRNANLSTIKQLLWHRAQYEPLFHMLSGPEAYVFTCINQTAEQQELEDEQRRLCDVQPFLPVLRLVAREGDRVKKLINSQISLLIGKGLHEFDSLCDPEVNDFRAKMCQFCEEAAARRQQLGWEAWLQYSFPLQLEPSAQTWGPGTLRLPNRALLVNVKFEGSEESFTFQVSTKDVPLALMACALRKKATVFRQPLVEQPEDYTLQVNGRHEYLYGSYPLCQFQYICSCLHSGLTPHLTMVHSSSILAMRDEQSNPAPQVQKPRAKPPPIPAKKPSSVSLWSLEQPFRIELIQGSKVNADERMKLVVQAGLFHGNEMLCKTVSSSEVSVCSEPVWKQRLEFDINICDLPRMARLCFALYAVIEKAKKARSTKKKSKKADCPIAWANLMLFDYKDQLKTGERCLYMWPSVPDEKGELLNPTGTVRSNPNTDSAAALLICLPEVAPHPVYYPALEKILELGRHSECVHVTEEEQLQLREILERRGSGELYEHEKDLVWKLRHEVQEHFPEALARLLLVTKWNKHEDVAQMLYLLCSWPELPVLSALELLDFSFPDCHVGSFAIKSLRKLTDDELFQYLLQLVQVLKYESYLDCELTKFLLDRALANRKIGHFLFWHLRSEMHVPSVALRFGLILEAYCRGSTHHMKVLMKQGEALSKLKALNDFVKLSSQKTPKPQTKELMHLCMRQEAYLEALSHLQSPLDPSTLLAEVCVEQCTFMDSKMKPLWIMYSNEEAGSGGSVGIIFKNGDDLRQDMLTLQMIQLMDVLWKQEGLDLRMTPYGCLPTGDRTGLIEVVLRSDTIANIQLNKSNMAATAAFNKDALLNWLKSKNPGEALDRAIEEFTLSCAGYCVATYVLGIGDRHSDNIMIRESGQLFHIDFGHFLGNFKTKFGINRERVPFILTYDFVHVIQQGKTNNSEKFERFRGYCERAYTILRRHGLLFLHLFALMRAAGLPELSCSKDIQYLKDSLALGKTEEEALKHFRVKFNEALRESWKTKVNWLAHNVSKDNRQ

Take `Cc1nc(NC(=O)NCCC(=O)OC(C)(C)C)sc1-c1ccc(S(C)(=O)=O)c(C(F)(F)F)c1`: the half-maximal inhibitory concentration (IC50) in assay [1] came out at 2060 nM; in assay [2] it was 2620 nM; in assay [3], 213 nM.

As to `Cc1nc(NC(=O)NCCC(=O)OC(C)(C)C)sc1-c1ccc(S(C)(=O)=O)c(F)c1`, the 50% inhibitory concentration (IC50) in assay [1] stood at 3020 nM; in assay [2], 626 nM; in assay [3], 16 nM.

As to `Cc1nc(NC(=O)NCCS(C)(=O)=O)sc1-c1ccc(F)c(S(C)(=O)=O)c1`, the concentration for half-maximal inhibition (IC50) in assay [1] stood at 218 nM; in assay [2], 637 nM; in assay [3] it was 177 nM.

As to `CCc1cnc(CCNC(=O)Nc2nc(C)c(-c3ccc(S(C)(=O)=O)c(-n4ccnc4)c3)s2)o1`, the results for the IC50 in assay [1], in assay [2] and in assay [3] were 156 nM, 170 nM and 32 nM, respectively.

On to `Cc1nc(NC(=O)NCC(=O)N(C)C)sc1-c1ccc(S(C)(=O)=O)c(F)c1`, for which the figures for the 50% inhibitory concentration (IC50) in assay [1], in assay [2] and in assay [3] were 9 nM, 28 nM and 12 nM, respectively.

Turning to `Cc1nc(NC(=O)NCCc2cn(C(C)C)cn2)sc1-c1ccc(S(C)(=O)=O)c(F)c1`, the IC50 in assay [1] turned out to be 1500 nM; in assay [2] it was 420 nM; in assay [3], 44 nM.

For the compound `CCc1nnc(CCNC(=O)Nc2nc(C)c(-c3ccc(S(C)(=O)=O)c(F)c3)s2)o1`, the half-inhibitory concentration (IC50) in assay [1] turned out to be 839 nM; in assay [2] it was 3790 nM; in assay [3], 74 nM.

Take `Cc1nc(NC(=O)NCCO)sc1-c1ccc(S(C)(=O)=O)c(C(F)(F)F)c1`: the IC50 came to 35 nM in assay [1], 180 nM in assay [2] and 47 nM in assay [3].

`CCn1cnc(CCNC(=O)Nc2nc(C)c(-c3ccc(S(C)(=O)=O)c(F)c3)s2)c1`: the results for the IC50 in assay [1], in assay [2] and in assay [3] were 934 nM, 2150 nM and 38 nM, respectively.

On to `Cc1nc(NC(=O)N2CC(C#N)C2)sc1-c1ccc(S(C)(=O)=O)c(F)c1`, for which the concentration for half-maximal inhibition (IC50) was 190 nM in assay [1] and 195 nM in assay [3].
